ChEMBL document CHEMBL5576158, “Recent insights of PROTAC developments in inflammation-mediated and autoimmune targets: a critical review” (RSC Med Chem, 2024)
Each block holds one compound with its values, some of them ahead of it.

Experiments:
[1] = biological target: Protein cereblon/Histone deacetylase 8 (Homo sapiens, UniProt Q9BY41+Q96SW2); test: PROTAC activity at CRBN/HDAC8 in human Jurkat T cells assessed as induction of degradation of HDAC8 by Western blot analysis; assay type: cell-based
Sequence of Protein cereblon/Histone deacetylase 8 (Q9BY41 whole entry): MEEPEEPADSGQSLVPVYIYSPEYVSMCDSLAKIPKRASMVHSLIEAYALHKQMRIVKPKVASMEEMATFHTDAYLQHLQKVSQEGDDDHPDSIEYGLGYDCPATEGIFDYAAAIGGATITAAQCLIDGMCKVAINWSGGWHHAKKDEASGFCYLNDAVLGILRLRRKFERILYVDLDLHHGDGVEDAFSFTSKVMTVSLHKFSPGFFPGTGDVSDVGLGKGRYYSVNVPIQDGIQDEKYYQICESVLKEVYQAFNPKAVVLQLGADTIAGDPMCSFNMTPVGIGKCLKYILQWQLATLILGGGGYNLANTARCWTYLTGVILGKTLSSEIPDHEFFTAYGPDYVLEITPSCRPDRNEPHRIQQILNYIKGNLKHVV
Sequence of Protein cereblon/Histone deacetylase 8 (Q96SW2 whole entry): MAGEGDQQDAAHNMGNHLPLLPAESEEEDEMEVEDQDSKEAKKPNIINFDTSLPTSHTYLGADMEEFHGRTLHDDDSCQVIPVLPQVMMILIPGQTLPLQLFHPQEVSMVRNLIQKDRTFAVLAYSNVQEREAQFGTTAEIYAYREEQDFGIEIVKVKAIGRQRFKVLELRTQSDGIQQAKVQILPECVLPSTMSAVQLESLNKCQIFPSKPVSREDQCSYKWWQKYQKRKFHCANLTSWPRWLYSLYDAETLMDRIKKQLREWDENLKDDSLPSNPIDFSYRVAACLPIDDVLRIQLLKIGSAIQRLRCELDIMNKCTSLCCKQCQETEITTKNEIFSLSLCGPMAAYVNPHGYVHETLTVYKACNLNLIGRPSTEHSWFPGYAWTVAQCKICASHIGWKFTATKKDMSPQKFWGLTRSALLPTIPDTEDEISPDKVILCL

[2] = biological target: Receptor-interacting serine/threonine-protein kinase 2 (Homo sapiens) (UniProt O43353); test: PROTAC activity at IAP/RIPK2 in human THP-1 cells assessed as […] by Western blot analysis
Sequence of Receptor-interacting serine/threonine-protein kinase 2 (Homo sapiens) (O43353 whole entry, looked up): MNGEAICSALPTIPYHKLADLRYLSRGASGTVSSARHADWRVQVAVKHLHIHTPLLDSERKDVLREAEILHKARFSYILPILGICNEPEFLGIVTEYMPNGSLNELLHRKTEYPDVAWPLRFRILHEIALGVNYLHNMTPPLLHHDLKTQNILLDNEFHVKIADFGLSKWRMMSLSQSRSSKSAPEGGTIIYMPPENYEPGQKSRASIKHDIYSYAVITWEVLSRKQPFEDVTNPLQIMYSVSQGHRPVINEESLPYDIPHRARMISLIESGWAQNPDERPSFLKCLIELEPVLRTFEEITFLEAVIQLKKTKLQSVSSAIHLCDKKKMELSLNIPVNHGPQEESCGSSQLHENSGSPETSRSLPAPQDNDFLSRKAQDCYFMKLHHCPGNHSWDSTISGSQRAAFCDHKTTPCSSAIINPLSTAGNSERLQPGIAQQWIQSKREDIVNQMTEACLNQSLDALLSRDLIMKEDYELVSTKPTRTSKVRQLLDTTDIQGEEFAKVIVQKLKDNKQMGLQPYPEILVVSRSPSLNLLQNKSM

[3] = biological target: T1, Tyrosine-protein kinase ITK/TSK (Homo sapiens) (UniProt Q08881); test: Degradation of ITK (unknown origin) at 1 uM relative to control
T1 sequence (whole entry): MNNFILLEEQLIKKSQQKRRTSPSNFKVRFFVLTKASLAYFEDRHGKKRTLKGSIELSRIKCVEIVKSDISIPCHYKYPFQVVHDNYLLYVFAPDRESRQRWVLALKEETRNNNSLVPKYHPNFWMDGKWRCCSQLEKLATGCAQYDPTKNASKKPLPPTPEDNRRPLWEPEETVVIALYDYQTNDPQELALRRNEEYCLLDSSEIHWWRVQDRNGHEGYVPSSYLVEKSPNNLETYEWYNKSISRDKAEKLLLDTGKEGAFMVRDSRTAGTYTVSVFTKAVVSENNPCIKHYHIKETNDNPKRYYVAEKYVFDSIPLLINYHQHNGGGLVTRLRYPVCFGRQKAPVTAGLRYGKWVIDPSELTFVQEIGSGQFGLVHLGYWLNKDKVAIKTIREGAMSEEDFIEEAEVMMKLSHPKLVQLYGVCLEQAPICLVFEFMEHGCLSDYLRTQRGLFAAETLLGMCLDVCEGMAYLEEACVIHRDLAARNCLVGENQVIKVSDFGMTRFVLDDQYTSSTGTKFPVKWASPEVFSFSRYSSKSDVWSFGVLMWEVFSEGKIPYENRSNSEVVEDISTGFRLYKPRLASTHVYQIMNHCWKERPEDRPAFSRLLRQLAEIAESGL

[4] = biological target: T2, Tyrosine-protein kinase ITK/TSK (Homo sapiens, UniProt Q08881); test: Inhibition of ITK (unknown origin)
T2 sequence (Q08881 whole entry): T1 sequence (whole entry)

[5] = biological target: Protein cereblon/Histone acetyltransferase KAT2A (Homo sapiens) (UniProt Q92830+Q96SW2); test: PROTAC activity at GCN5/CRBN in human THP-1 cells assessed as induction of […] degradation by measuring maximal efficacy at 30 nM measured for 10 mins by Western blot analysis relative to control; assay type: cell-based
[6] = biological target: Protein cereblon/Histone acetyltransferase KAT2B (Homo sapiens) (UniProt Q92831+Q96SW2); test: PROTAC activity at PCAF/CRBN in human THP-1 cells assessed as induction of PCAF degradation by measuring maximal efficacy at 30 nM measured for 10 mins by Western blot analysis relative to control; assay type: cell-based
Sequence of Protein cereblon/Histone acetyltransferase KAT2B (Homo sapiens) (Q92831 whole entry, looked up): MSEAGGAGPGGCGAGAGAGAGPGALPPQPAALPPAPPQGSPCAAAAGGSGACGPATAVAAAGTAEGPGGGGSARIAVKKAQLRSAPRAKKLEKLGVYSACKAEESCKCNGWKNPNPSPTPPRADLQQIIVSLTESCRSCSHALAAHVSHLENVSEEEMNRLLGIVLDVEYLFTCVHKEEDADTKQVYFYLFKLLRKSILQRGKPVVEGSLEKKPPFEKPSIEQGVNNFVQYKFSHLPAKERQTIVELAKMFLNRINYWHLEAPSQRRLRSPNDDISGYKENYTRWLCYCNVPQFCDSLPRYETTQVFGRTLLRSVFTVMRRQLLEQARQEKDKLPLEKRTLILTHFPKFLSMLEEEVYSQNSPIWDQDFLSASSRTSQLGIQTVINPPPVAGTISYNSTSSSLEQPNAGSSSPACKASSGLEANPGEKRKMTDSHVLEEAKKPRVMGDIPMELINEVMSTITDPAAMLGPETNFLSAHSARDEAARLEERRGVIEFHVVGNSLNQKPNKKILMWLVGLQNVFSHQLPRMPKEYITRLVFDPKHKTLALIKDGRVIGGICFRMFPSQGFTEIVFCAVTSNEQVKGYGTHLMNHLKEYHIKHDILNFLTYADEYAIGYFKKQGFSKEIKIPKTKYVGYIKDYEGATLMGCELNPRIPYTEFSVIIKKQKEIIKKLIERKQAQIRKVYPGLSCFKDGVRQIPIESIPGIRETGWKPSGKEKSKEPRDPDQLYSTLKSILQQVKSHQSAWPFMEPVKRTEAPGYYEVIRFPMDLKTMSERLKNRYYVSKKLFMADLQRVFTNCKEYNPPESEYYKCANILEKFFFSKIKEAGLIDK
Sequence of Protein cereblon/Histone acetyltransferase KAT2B (Homo sapiens) (Q96SW2 whole entry, looked up): as the sequence (Q96SW2 whole entry) above

[7] = biological target: von Hippel-Lindau disease tumor suppressor/Receptor-interacting serine/threonine-protein kinase 2 (Homo sapiens) (UniProt O43353+P40337); test: PROTAC activity at VHL/RIPK2 in human THP-1 cells assessed as RIPK2 degradation by measuring maximal efficacy at 10 nM measured after 16 hrs by Western blot analysis relative to control; assay type: cell-based
Sequence of von Hippel-Lindau disease tumor suppressor/Receptor-interacting serine/threonine-protein kinase 2 (Homo sapiens) (O43353 whole entry, looked up): as the sequence (O43353 whole entry, looked up) above
Sequence of von Hippel-Lindau disease tumor suppressor/Receptor-interacting serine/threonine-protein kinase 2 (Homo sapiens) (P40337 whole entry, looked up): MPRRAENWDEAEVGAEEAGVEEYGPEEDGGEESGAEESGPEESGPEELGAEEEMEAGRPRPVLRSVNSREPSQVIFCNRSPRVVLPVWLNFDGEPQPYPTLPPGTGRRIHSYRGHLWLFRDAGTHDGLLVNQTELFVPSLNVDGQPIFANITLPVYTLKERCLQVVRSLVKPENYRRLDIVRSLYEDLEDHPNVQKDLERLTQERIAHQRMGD

[8] = biological target: Protein cereblon/Interleukin-1 receptor-associated kinase 4 (Homo sapiens, UniProt Q9NWZ3+Q96SW2); test: PROTAC activity at CRBN/IRAK4 in human THP-1 cells assessed as induction of IRAK4 degradation by Immuno-blotting analysis; assay type: cell-based
Sequence of Protein cereblon/Interleukin-1 receptor-associated kinase 4 (Q9NWZ3 whole entry): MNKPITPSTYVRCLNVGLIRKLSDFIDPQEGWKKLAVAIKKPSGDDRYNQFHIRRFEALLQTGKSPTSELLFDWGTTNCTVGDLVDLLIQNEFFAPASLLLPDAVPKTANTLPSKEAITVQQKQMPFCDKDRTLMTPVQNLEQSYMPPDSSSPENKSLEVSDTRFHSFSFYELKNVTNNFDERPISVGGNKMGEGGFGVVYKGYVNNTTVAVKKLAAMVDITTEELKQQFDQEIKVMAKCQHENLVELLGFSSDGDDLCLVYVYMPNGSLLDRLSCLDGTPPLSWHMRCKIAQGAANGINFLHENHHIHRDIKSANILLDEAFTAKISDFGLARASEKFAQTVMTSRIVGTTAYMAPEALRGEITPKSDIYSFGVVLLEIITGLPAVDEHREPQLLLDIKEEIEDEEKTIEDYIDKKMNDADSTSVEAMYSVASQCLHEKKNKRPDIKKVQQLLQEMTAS
Sequence of Protein cereblon/Interleukin-1 receptor-associated kinase 4 (Q96SW2 whole entry): as the sequence (Q96SW2 whole entry) above

[9] = Cytotoxicity against mouse RAW264.7 cells assessed as reduction in cell growth; assay type: toxicity, cell-based
[10] = biological target: Protein cereblon/Macrophage migration inhibitory factor (Homo sapiens) (UniProt P14174+Q96SW2); test: PROTAC activity at E3 ubiquitin ligase/MIF in human A549 cells assessed as induction of MIF degradation by Western blot analysis; assay type: cell-based
Sequence of Protein cereblon/Macrophage migration inhibitory factor (Homo sapiens) (Q96SW2 whole entry partner, one chain of several): as the sequence (Q96SW2 whole entry) above

[11] = biological target: von Hippel-Lindau disease tumor suppressor/Tyrosine-protein kinase BTK (Homo sapiens, UniProt Q06187+P40337, C481S); test: PROTAC activity at VHL/BTK C481S mutant in human THP-1 cells assessed as induction of BTK degradation incubated for 24 hrs by immunoblotting analysis; assay type: cell-based
[12] = biological target: Protein cereblon/Protein deacetylase HDAC6 (Homo sapiens, UniProt Q9UBN7+Q96SW2); test: PROTAC activity at CRBN/HDAC6 in human MM1.S cells assessed as HDAC6 degradation incubated for 18 hrs by immunoblot analysis; assay type: cell-based
[13] = biological target: Protein cereblon/Indoleamine 2,3-dioxygenase 1 (Homo sapiens) (UniProt P14902+Q96SW2); test: PROTAC activity against CRBN/IDO1 in human HeLa cells assessed as induction of IDO1 degradation at 2 uM incubated for 24 hrs by Western blot analysis relative to control; assay type: cell-based
[14] = biological target: T3, von Hippel-Lindau disease tumor suppressor/Interleukin-1 receptor-associated kinase 3 (Homo sapiens, UniProt Q9Y616+P40337); test: PROTAC activity at IRAK3/VHL E3 ligase in human THP-1 cells assessed as induction of IRAK3 degradation by measuring maximal efficacy incubated for 24 hrs by Western blot analysis; assay type: cell-based
[15] = biological target: T3, von Hippel-Lindau disease tumor suppressor/Interleukin-1 receptor-associated kinase 3; test: PROTAC activity at IRAK3/VHL E3 ligase in human THP-1 cells assessed as induction of IRAK3 degradation by Immuno-blot analysis; assay type: cell-based
[16] = biological target: T4, Macrophage migration inhibitory factor (Homo sapiens, UniProt P14174); test: Binding affinity to MIF in human A549 cells assessed as inhibition constant; assay type: cell-based
T4 sequence (P14174 whole entry): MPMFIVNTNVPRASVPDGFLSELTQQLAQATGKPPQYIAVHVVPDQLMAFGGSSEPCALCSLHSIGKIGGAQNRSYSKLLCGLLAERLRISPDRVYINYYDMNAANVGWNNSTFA

SMILES: O=C1CCC(N2C(=O)c3ccc(NCCCCCCCCCCCNC(=O)c4cccc(SCc5cn(-c6cccc(C(=O)NO)c6)nn5)c4)cc3C2=O)C(=O)N1 (centres undefined)
DC50 [1]: 702 nM

SMILES: C=C1CC[C@H]2[C@@H](/C=C(\C)C(=O)[C@@]3(O)C[C@H](C)[C@H](O)[C@@H]3[C@H]1OCc1cn(CCOCCOCCOCCNc3cccc4c3C(=O)N(C3CCC(=O)NC3=O)C4=O)nn1)C2(C)C (some centres undefined)
IC50 [9]: 8340 nM

SMILES: CN1C(=O)CCC(N2C(=O)c3cccc(NCCCCCCCC(=O)Nc4ccc(N5Cc6ccc(O)cc6OC5=O)cc4)c3C2=O)C1=O (centres undefined)
Emax [10]: 55%

SMILES: CN[C@@H](C)C(=O)N[C@H](C(=O)N1C[C@@H](NC(=O)OCCOCCOCCOCCN2CCN(CCCC(=O)N3CCC[C@@H](n4nc(-c5ccc(Oc6ccccc6)cc5)c5c(N)ncnc54)C3)CC2)C[C@H]1C(=O)N[C@@H]1CCCc2ccccc21)C1CCCCC1
DC50 [11]: 200 nM

SMILES: CCCCN(Cc1ccc(C(=O)O)cc1)C(=O)Nc1ccc(OCCCCCCCn2cc(CNCc3ccc(-c4cccc5c4CN(C4CCC(=O)NC4=O)C5=O)cc3)nn2)cc1 (centres undefined)
DC50 [12]: 1.9 nM

SMILES: O=C1CCC(N2C(=O)c3cccc(NCCOCCOCCOCCOCCOCCOCCOCCNCCNc4nonc4/C(=N/O)Nc4ccc(F)c(Br)c4)c3C2=O)C(=O)N1 (centres undefined)
Emax [13]: 93%

SMILES: O=C1CCC(N2C(=O)c3cccc(NCCCCC(=O)Nc4ccc(N5Cc6ccc(O)cc6OC5=O)cc4)c3C2=O)C(=O)N1 (centres undefined)
Emax [10]: 21%
Ki [16]: 86 nM

SMILES: O=C1CCC(N2C(=O)c3cccc(NCCCCCCCC(=O)Nc4ccc(N5Cc6ccc(O)cc6OC5=O)cc4)c3C2=O)C(=O)N1 (centres undefined)
Emax [10]: 91%

SMILES: O=C1CCC(N2C(=O)c3cccc(NCCCC(=O)Nc4ccc(N5Cc6ccc(O)cc6OC5=O)cc4)c3C2=O)C(=O)N1 (centres undefined)
Ki [16]: 55 nM

SMILES: O=C1CCC(N2C(=O)c3cccc(NCCCCCCCCCC(=O)Nc4ccc(N5Cc6ccc(O)cc6OC5=O)cc4)c3C2=O)C(=O)N1 (centres undefined)
Emax [10]: 64%

SMILES: O=C1CCC(N2C(=O)c3cccc(NCCCCCCC(=O)Nc4ccc(N5Cc6ccc(O)cc6OC5=O)cc4)c3C2=O)C(=O)N1 (centres undefined)
Emax [10]: 55%

More lines, now with the values ahead:

pDC50 [2]: 7.9
SMILES: CN[C@@H](C)C(=O)N[C@H](C(=O)N1CCC[C@H]1c1nc(C(=O)c2ccc(F)cc2)cs1)C1CCN(C(=O)c2cnc(N3CCN(CCOc4cc5ncnc(Nc6n[nH]c(C)c6C)c5cc4S(=O)(=O)C(C)(C)C)CC3)nc2)CC1

degradation [3]: > 90%
pDC50 [2]: 9.4
IC50 [4]: 17.6 nM
SMILES: COc1cc(C)c(Sc2cnc(NC(=O)c3ccc(N4CCN(CCCCCCNC(=O)COc5cccc6c5C(=O)N(C5CCC(=O)NC5=O)C6=O)CC4)cc3)s2)cc1C(=O)N1CCN(C(C)=O)CC1 (centres undefined)

Emax [5]: 80%
Emax [6]: 80%
SMILES: CN1C[C@H](Nc2cnn(C)c(=O)c2Br)C[C@H](c2ccc(C(=O)N(C)CCCN(C)c3ccc(CCCOc4cccc5c4C(=O)N(C4CCC(=O)NC4=O)C5=O)cc3)cc2)C1 (some centres undefined)

Emax [7]: 95%
SMILES: Cc1ncsc1-c1ccc(CNC(=O)[C@@H]2C[C@@H](O)CN2C(=O)[C@@H](NC(=O)COCCOCCOCCOCCOc2cc3nccc(Nc4ccc5scnc5c4)c3cc2S(=O)(=O)C(C)(C)C)C(C)(C)C)cc1

DC50 [8]: 190 nM
SMILES: CC(C)Nc1cc(C(=O)N[C@H]2CC[C@@H](C(=O)NCCCCCNC(=O)COc3cccc4c3C(=O)N(C3CCC(=O)NC3=O)C4=O)CC2)nc(-n2ccc3cc(C#N)cnc32)c1 (some centres undefined)

Emax [14]: 95%
DC50 [15]: 94 nM
SMILES: Cc1ncsc1-c1ccc([C@H](C)NC(=O)[C@@H]2C[C@@H](O)CN2C(=O)[C@@H](NC(=O)[C@H]2CC[C@H](C(=O)N3CCC(n4cc(-c5cnc(N)c(O[C@@H](C)c6c(Cl)ccc(F)c6Cl)c5)cn4)CC3)CC2)C(C)(C)C)cc1

pDC50 [2]: 9.4
SMILES: CN[C@H](C)C(=O)N[C@@H](C(=O)N1Cc2cc(OCCOCCOCCOCCOc3cc4nccc(Nc5ccc6scnc6c5)c4cc3S(=O)(=O)C(C)(C)C)ccc2C[C@H]1C(=O)N[C@H]1CCCc2ccccc21)C(C)(C)C

DC50 [8]: 405 nM
SMILES: CC(C)Nc1cc(C(=O)N[C@H]2CC[C@@H](C(=O)NCCOCCNC(=O)COc3cccc4c3C(=O)N(C3CCC(=O)NC3=O)C4=O)CC2)nc(-n2ccc3cc(C#N)cnc32)c1 (some centres undefined)
